For test [1], the target named is Melanin-concentrating hormone receptor 1 (Homo sapiens, UniProt Q99705). Briefly: Fluorescence-based counterscreen for antagonists of the G-protein coupled receptor 7 (GPR7): cell-based high throughput dose response assay to identify antagonists of the melanin-concentrating hormone receptor 1 (MCHR1). In kind it is functional.
Another test deals with Bcl-2-like protein 10 (Homo sapiens, UniProt Q9HD36). Briefly: displacers of TR3 peptide from Bcl-B, primary screen, selectivity assay for Bfl-1 inhibitor project, biochemical, fluorescence polarization, FITC-TR3 peptide (AID 748).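 Note: fluorescence polarization from a fluorescein-labelled TR3 peptide binding purified Bcl-B.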 A general note: Polarisation of emitted light reports the rotation of a fluorescent probe.
Bcl-2-like protein 10, sequence (Q9HD36 whole entry): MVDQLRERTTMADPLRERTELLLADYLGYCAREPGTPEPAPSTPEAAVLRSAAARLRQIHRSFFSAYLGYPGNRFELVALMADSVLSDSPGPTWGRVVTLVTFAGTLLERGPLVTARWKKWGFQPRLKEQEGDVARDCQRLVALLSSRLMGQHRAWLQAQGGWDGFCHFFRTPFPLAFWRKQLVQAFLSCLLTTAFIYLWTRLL
In test [2] the target is T1, DNA repair protein RAD52 homolog (Homo sapiens, UniProt P43351).
T1 sequence (P43351 whole entry): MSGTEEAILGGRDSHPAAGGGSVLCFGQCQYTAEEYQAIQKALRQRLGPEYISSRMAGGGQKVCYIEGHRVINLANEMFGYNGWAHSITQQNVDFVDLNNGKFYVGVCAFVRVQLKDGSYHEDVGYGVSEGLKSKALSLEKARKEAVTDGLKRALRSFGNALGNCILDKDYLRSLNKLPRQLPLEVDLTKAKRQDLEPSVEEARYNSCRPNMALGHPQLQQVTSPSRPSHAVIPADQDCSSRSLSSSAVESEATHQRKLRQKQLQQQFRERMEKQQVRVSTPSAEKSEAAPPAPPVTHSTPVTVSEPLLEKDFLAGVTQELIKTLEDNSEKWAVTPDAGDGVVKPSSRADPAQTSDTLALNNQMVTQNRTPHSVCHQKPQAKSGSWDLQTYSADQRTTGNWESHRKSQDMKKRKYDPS
In kind it is functional, biochemical.

Test [3] addresses T2, Short transient receptor potential channel 4 (Mus musculus, UniProt Q9QUQ5).
T2 sequence (Q9QUQ5 whole entry): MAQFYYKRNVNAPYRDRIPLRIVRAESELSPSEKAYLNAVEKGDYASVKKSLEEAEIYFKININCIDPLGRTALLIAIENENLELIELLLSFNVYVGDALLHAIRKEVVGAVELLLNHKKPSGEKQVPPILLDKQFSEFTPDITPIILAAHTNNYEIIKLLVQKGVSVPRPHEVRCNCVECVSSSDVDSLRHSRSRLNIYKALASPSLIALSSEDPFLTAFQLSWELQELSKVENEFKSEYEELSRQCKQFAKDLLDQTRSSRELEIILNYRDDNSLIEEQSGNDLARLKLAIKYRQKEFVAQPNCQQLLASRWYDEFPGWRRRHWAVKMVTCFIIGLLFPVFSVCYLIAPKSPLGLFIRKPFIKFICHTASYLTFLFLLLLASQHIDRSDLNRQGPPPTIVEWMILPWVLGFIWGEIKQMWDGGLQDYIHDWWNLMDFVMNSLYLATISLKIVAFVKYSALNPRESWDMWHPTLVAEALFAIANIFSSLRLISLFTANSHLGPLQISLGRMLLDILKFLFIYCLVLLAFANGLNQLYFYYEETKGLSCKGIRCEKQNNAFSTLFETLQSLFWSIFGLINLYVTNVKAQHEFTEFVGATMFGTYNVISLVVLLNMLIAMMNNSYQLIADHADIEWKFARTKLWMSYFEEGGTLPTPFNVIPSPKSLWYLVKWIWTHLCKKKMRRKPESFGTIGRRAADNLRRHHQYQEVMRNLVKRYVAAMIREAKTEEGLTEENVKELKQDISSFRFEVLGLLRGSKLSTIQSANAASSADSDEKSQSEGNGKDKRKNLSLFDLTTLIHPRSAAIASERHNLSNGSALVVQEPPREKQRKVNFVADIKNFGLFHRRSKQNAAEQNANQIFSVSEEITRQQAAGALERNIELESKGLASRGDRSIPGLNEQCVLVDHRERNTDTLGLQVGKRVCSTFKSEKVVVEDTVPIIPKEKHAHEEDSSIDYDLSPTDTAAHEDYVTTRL
Briefly: mouse TRPC4 channel inhibitors, dose response, cell-based, HEK293 TRPC4/mu-opioid, Fluo-4 calcium (AID 434942).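 Note: potency of inhibitors blocking the TRPC4 calcium response.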 In kind it is functional.

The next test has as its system Vero. Briefly: host cell cytotoxicity of antiviral hits, dose response, cytotoxicity control for West Nile virus antiviral project, secondary assay (AID 1650). Conditions: Chlorocebus sabaeus. In kind it is functional.
In test [4] the target is T3, DNA repair and recombination protein RAD54-like (Homo sapiens, UniProt Q92698).
T3 sequence (Q92698 whole entry): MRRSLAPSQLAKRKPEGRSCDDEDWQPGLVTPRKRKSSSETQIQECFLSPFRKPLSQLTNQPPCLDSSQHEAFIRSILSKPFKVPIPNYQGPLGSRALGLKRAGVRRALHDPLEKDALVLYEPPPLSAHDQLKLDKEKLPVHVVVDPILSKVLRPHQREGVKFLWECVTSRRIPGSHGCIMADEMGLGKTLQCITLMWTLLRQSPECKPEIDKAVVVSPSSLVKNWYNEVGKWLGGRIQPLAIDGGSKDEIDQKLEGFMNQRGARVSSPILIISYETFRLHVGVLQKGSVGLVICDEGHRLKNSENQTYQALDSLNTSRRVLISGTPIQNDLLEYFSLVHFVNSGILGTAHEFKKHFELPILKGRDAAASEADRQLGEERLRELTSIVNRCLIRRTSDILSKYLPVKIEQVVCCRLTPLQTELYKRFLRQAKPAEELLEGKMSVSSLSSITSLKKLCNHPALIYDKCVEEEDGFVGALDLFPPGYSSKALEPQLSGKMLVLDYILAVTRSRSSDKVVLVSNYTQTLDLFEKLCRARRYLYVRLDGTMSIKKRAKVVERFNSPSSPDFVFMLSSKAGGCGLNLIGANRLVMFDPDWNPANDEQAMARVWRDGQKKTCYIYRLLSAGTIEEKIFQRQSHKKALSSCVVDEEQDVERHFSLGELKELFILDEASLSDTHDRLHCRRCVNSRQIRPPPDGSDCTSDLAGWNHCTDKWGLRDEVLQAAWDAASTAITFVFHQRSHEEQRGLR
Briefly: inhibitors of human RAD54 branch migration, confirmation, biochemical, fluorescence, cherry-picked samples, dose series (AID 651657). In kind it is functional.

The target in test [5] is Protein Rev (Human immunodeficiency virus type 1 group M subtype B (isolate WMJ22)(HIV-1), UniProt P05866). Description: HIV-1 Rev-RRE RNA binding disruptors, dose response, biochemical, protein-RNA interaction (AID 842). On the set-up: species or system Human immunodeficiency virus 1.
Protein Rev (Human immunodeficiency virus type 1 group M subtype B (isolate WMJ22)(HIV-1), UniProt P05866), sequence (P05866 whole entry): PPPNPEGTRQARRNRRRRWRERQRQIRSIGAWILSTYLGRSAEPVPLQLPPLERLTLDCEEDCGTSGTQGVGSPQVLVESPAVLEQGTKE
The target of test [6] is T4, Eukaryotic translation initiation factor 2-alpha kinase 3 (Homo sapiens, UniProt Q9NZJ5). Briefly: Counterscreen assay for PERK inhibitors: Dose response cell-based high throughput screening assay to measure inhibition of PERK at 6 hours. [Related pubchem assays: 1522, 1416 ]. In kind it is functional. On the technique in general: Counterscreens check selectivity or assay interference.
T4 sequence (Q9NZJ5 whole entry): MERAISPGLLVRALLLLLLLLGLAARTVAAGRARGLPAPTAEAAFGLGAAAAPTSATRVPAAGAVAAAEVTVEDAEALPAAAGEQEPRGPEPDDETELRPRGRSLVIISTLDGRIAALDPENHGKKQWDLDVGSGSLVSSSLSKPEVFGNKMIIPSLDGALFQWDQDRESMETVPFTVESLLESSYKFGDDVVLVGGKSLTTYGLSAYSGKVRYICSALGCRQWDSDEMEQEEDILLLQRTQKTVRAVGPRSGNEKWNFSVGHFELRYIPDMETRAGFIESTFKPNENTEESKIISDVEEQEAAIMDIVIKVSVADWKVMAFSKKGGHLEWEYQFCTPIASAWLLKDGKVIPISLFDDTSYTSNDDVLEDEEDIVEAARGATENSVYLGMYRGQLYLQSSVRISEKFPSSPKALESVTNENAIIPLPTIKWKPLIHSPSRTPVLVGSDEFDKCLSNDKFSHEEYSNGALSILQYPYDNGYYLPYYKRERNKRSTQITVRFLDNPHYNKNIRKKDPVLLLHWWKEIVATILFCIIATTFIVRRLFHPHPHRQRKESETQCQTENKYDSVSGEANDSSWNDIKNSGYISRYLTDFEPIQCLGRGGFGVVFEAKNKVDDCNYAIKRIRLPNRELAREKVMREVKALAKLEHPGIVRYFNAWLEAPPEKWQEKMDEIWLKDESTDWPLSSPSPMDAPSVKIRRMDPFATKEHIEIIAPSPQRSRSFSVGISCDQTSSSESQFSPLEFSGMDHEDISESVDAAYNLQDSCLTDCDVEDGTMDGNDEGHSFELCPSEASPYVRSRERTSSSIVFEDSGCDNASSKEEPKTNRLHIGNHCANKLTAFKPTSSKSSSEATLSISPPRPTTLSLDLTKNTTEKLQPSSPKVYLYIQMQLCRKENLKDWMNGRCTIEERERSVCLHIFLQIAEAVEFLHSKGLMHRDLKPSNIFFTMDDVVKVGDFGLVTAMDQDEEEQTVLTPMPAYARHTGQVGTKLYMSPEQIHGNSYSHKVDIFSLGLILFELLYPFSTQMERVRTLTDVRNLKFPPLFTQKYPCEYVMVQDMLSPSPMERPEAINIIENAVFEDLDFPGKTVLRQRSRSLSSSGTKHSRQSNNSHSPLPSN

In test [7] the target is T4, Eukaryotic translation initiation factor 2-alpha kinase 3. Description: Dose response cell-based high-throughput screening assay to measure PERK inhibition. [Related pubchem assays: 1416 ]. In kind it is functional.
In a further test the test system is HEK293. Description: cells. Conditions: Homo sapiens.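 Note: cells exposed to compound for 14 hours overnight before viability readout.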
The target in test [8] is Nucleotide-binding oligomerization domain-containing protein 2 (Homo sapiens, UniProt Q9HC29). Briefly: PubChem AID 2334. In kind it is functional.
Nucleotide-binding oligomerization domain-containing protein 2, sequence (Q9HC29 whole entry, the tested form may be a part): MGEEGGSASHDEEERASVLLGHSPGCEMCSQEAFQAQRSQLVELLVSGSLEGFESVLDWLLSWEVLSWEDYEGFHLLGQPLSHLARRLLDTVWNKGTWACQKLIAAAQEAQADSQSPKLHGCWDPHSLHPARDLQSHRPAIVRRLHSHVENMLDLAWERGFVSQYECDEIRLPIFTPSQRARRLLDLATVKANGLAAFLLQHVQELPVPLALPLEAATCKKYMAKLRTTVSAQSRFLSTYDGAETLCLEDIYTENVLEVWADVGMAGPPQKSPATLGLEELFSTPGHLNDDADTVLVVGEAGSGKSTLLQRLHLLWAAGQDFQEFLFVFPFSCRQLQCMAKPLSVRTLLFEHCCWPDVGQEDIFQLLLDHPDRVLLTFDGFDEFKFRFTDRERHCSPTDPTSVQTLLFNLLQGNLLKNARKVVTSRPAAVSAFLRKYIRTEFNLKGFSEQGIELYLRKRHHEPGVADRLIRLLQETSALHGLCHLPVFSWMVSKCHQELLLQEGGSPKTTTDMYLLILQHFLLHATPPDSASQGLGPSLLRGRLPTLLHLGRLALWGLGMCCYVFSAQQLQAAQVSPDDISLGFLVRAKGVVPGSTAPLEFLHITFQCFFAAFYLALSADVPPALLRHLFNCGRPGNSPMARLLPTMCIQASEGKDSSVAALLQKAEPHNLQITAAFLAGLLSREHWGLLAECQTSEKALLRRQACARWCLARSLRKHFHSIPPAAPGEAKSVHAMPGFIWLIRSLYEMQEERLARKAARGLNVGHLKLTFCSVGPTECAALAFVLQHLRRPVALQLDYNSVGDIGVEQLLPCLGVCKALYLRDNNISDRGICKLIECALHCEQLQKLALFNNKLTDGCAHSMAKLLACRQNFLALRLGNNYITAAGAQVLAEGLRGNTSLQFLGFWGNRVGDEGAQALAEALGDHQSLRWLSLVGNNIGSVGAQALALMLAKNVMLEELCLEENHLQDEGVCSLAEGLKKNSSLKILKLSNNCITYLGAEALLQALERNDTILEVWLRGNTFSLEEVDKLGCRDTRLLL
The target in test [9] is Nucleotide-binding oligomerization domain-containing protein 1 (Homo sapiens, UniProt Q9Y239). Description: NOD1 signaling inhibitors, SAR follow-up, revised (AID 2333). In kind it is functional.
Nucleotide-binding oligomerization domain-containing protein 1, sequence (Q9Y239 whole entry, the tested form may be a part): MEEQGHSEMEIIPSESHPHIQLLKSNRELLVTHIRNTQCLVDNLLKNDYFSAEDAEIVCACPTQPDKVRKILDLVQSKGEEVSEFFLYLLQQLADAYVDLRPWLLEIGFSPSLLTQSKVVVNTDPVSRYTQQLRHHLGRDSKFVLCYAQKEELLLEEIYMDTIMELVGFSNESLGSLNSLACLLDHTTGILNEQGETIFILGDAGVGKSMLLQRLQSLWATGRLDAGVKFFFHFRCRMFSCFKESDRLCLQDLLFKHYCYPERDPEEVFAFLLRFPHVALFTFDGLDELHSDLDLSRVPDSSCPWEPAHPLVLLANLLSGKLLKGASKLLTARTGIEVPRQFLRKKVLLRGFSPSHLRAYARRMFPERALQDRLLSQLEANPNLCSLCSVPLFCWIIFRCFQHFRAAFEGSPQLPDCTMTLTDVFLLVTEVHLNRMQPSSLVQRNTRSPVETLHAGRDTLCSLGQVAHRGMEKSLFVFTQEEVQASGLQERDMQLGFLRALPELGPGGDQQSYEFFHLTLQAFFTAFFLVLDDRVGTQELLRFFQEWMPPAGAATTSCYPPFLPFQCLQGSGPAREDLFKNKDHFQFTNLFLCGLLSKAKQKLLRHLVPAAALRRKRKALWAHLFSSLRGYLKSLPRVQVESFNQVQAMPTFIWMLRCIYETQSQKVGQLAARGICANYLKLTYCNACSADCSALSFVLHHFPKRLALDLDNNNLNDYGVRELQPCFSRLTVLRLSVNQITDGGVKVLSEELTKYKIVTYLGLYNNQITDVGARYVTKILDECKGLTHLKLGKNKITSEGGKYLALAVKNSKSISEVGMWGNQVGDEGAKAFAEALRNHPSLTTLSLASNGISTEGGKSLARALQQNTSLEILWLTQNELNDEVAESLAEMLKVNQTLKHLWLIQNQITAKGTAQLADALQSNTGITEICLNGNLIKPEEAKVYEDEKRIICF
The target in another test is Tumor necrosis factor (Homo sapiens, UniProt P01375). Briefly: TNFa-triggered NF-kB activation inhibitors, SAR follow-up, cell-based, revised (AID 2337). In kind it is functional.
Tumor necrosis factor, sequence (P01375 whole entry): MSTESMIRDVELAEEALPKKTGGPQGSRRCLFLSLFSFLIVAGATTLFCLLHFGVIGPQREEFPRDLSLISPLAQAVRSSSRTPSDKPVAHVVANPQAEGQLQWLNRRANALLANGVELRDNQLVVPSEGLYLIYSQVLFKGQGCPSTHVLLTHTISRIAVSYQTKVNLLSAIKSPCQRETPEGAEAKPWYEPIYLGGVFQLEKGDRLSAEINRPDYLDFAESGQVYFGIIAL
Test [10] deals with Protein phosphatase methylesterase 1 (Homo sapiens, UniProt Q9Y570). Description: PME-1 inhibitor potency by in-gel ABPP, dose response, selectivity assay for PME-1 inhibitor project, cell lysate, mouse brain cytosol, FP-rhodamine, panel member PME-1 Assay Panel member description: Inhibition of endogenously expressed PME-1 (AID 2366).
The target in test [11] is Female germline-specific tumor suppressor gld-1 (Caenorhabditis elegans, UniProt Q17339). Description: inhibitors of GLD-1 binding to TGE RNA, dose response, biochemical, fluorescence polarization, C. elegans (AID 2802).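 Note: fluorescence polarization of labeled TGE RNA bound by purified gld-1 protein.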
For test [12], the target named is T5, Polyadenylate-binding protein 1 (Homo sapiens, UniProt P11940). Briefly: PABP1 MLLE–PAM2 binding inhibitor potency, dose response, biochemical, fluorescence polarization, FITC-PAM2 peptide (AID 602259). In kind it is functional. Conditions: read-out: IC50_Mean.
T5 sequence (P11940 whole entry): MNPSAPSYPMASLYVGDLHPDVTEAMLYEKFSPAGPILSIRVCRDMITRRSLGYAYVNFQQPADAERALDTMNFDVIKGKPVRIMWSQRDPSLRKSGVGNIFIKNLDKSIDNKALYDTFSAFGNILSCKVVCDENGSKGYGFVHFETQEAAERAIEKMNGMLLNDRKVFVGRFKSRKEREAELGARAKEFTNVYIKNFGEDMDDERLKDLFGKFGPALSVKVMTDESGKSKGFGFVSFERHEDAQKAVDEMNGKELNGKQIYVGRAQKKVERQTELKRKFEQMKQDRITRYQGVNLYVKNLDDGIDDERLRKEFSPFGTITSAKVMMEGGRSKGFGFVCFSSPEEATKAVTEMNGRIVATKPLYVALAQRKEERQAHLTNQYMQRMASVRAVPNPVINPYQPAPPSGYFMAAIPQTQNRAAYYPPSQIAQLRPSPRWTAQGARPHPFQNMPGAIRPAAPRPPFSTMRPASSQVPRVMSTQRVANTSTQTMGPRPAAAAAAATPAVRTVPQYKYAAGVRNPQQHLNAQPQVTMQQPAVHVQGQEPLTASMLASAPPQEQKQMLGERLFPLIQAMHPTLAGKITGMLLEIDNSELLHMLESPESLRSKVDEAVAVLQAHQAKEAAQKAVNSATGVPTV
Test [13] concerns the target Protein Rev (Human immunodeficiency virus type 1 group M subtype B (isolate HXB2)(HIV-1), UniProt P04618). Description: inhibitors of Rev binding to RRE RNA, dose response, biochemical, fluorescence polarization, HIV-1 (AID 434976). Also on record: species or system Human immunodeficiency virus 1.
For test [14], the target named is T5, Polyadenylate-binding protein 1. Description: PABP1 MLLE–PAM2 interaction inhibitors, dose response, miRNA deadenylation inhibitor project, biochemical, fluorescence polarization, Cy5-PAM2 peptide, secondary (AID 602260). In kind it is functional. Conditions: read-out: IC50_Mean.

The structures appear in SMILES notation. Active and inactive are the calls of the source.

Melanin-concentrating hormone receptor 1, sequence (Q99705 whole entry): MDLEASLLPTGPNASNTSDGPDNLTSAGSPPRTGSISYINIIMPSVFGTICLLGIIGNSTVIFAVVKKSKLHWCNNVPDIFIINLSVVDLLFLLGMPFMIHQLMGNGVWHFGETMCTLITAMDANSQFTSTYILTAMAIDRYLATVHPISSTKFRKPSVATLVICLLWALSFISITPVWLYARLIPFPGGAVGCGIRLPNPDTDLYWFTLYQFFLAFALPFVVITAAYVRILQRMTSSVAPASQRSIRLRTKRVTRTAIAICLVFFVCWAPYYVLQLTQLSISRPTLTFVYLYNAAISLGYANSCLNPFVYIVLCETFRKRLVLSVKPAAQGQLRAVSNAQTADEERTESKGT
Protein Rev (Human immunodeficiency virus type 1 group M subtype B (isolate HXB2)(HIV-1), UniProt P04618), sequence (P04618 whole entry): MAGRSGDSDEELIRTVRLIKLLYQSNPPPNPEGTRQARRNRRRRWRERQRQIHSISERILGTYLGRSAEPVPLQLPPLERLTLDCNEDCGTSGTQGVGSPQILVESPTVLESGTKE

`CCN(CC)CCNC(=O)CCc1c(C)nc2c(c(C)nn2-c2ccc(C)cc2)c1C`: the IC50 in test [1] was 11.2 µM (not active).

`O=C(C[n+]1ccc(C(=O)NN=Cc2ccc(O)cc2)cc1)c1ccccc1`: the IC50 on Bcl-2-like protein 10 is 70.4 µM (inactive).

On to `CCc1ccc2nc3nc(C)cc(C)c3c(N)c2c1`, for which the AC50 was 3.58 µM (active) in [2] and 9.59 µM (active) in test [4]. The EC50 in [3] is 3.35 µM (active). In addition, the half-maximal cytotoxic concentration (CC50) in the test on Vero is 21.6 µM (active). For the same compound, the IC50 on Protein Rev [5] is on record as 58.8 µM (not active).

In the case of `Cn1c(=O)c2c(SCc3ccccc3)nc(-c3ccco3)nc2n(C)c1=O`, the EC50 in test [6] and in [7] was > 55.7 µM (not active) in each case.

For the compound `CCOC(=O)c1c(NC(=O)CN2CCOCC2)sc2c1CC(C)(C)OC2`, the IC50 (with HEK293; in [8]; in test [9]; on Tumor necrosis factor) was > 20 µM (inactive) each time.

Consider `CS(=O)(=O)/C(C#N)=C/c1cccn1S(=O)(=O)c1cccc2ccccc12`, for which the IC50 in test [10] was > 20 µM (inactive).

On to `Nc1nnnn1/N=C/c1cc(Cl)ccc1O`, for which the IC50 was 6.2 µM (active) in test [11], 38.8 µM (inactive) in [12], > 75.3 µM (not active) on Protein Rev [13] and 35.1 µM (inactive) in [14].

A word on the AC50: it is the concentration giving half of the maximal activity seen. By EC50 is commonly meant the concentration giving half of the maximal effect. As usually defined, the CC50 is the concentration giving 50% cytotoxicity.

These data come from ChEMBL document CHEMBL1201862, “PubChem BioAssay data set” (2004).
